# Data as given in patent US20200261419A1, “COMBINATIONS FOR THE TREATMENT OF KIDNEY STONES” (Wake Forest University Health Sciences, priority 2015, published 2020).
# Key:
# [1] = target: T1, recombinant, human liver GO (the HAO1 gene product) (Homo sapiens, UniProt Q9UJM8); test: GO inhibition, coupled DCIP assay; format: biochemical; details: 37° C., 100 mM potassium phosphate pH 7.5, 75 μM DCIP, 3 mM glycolate; read-out: apparent Ki
# T1 sequence (Q9UJM8 1-370): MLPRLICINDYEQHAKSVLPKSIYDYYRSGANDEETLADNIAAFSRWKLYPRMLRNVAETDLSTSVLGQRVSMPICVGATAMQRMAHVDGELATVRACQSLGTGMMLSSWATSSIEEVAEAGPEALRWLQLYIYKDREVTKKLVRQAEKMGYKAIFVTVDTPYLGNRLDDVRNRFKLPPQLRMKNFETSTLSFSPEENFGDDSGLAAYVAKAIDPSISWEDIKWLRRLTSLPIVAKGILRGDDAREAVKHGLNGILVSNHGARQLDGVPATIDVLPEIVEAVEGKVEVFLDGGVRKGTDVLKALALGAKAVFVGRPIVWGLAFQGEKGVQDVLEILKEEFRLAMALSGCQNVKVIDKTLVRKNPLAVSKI
# Method: Testing of GO inhibitors. The inhibition of recombinant, human liver GO (the HAO1 gene product) is readily determined by a coupled assay that contains 2,6-dichloroindophenol (DCIP) (Murray et al. Biochemistry 47, 2439-2449, 2008). Briefly, GO is pre-incubated at 37° C. with or without inhibitor in 100 mM potassium phosphate pH 7.5 (0.1% DMSO final) for […]. An aliquot of pre-warmed DCIP and glycolate is added to start the reaction (final concentration 75 μM DCIP, 3 mM glycolate). The reaction rate is determined by monitoring the decrease at 600 nm (extinction coefficient of 21 mM^−1 cm^−1).
# [2] = target: T2, human HYPDH (Homo sapiens, UniProt Q9UF12); test: Anaerobic titration of the FAD spectrum of HYPDH; format: binding
# T2 construct: Only the constructs containing the residues 147-515 and 156-515 were >96% loaded with FAD+ and active; made in house; host or cells: Escherichia coli
# T2 sequence (Q9UF12 71-439 limits assumed): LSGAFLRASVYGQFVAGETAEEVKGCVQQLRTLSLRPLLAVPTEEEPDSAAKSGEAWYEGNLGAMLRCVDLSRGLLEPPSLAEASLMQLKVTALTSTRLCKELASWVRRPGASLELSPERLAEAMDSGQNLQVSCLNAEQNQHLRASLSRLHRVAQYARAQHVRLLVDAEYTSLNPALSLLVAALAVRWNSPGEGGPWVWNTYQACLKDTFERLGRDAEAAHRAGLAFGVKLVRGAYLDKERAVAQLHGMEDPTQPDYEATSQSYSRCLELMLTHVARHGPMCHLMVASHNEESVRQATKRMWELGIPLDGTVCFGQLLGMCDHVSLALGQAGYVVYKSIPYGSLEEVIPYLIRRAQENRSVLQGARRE
SMILES,Ki [1],Kd [2]
CCCCCCCCCCCCSc1snnc1C(=O)O [CDST],~0.015 µM,–
"O=C(O)[C@@H]1C[C@@H](O)CN1 [Hyp, Hydroxyproline]",–,125 µM
